Test system: human kidney
Assay: periodic infusion of insulin into a perfused, extracted three-day-old human kidney (similar to PIR treatment)
Excerpt: For example, using a three-day-old human kidney that was extracted or otherwise removed from the human body, after a control period, the kidney was augmented with a periodic infusion of insulin for approximately two hours at a concentration similar to the amount of insulin projected to be seen by a kidney in situ in a person who would receive physiological insulin resensitization (PIR) treatment.
The perfusate was sampled before and after passing through the kidney at five-to-fifteen-minute intervals to determine if glucose was being removed and to determine any changes in electrolytes, such as sodium and potassium.
The ability of the kidney to generate and excrete urine was monitored via a catheter attached to a ureter.
Two-millimeter punch biopsies were examined approximately every fifteen minutes with a specialized Acquyre Biosciences microscope that produces pseudo-colored images at a cellular level that reflect the extent of intracellular organellar movement. Intracellular movement is dependent on the availability of cytoplasmic ATP (adenosine triphosphate).

insulin
ability of the kidney to generate and excrete urine (monitored via catheter attached to a ureter, after about one hour of treatment, no excretion during control period): the kidney began to excrete urine | glucose ingested by the kidney from the perfusate (perfusate sampled before and after passing through the kidney at five-to-fifteen-minute intervals, periodic insulin infusion for approximately two hours, versus control period): well in excess of the control level | alteration of electrolyte concentrations (sodium, potassium) in the perfusate (perfusate sampled before and after passing through the kidney, periodic insulin infusion, versus control period): better alter the electrolyte concentrations in a manner similar to a kidney in situ | intracellular organellar movement in punch biopsies (reflects cytoplasmic ATP) (two-millimeter punch biopsies, Acquyre Biosciences microscope, after approximately thirty minutes of perfusion, relative to control period): obvious increase in intracellular movement relative to the control period

Source: US20250375503A1, “Method and System for Tuning Hormone Receptors through the Dynamic Intravenous Delivery of a Hormone According to a Target Physiological Cadence” (Well Cell Global LLC, priority 2024, published 2025)
